Patent publication US4616014A, “Triazine derivatives, and pharmaceutical compositions comprising the same” (Fujisawa Pharmaceutical Co., Ltd., priority 1981, dated 1986)
Counter-ions that a name gives are not always drawn. Like-named read-outs stand apart in the source and are kept apart here. Blank lines part the entries; values can stand above or below the compound they belong to.

How the values were obtained:
[1] = tested on: platelet aggregation induced by collagen; assay: Inhibition of collagen-induced platelet aggregation in platelet rich plasma (Test Method B); assay type: cell-based, rabbit; conditions: 2 min, collagen (2.5 μg/ml), 37° C., read-out: ID50, Collagen
Procedure: (§1) Platelet rich plasma (PRP) which contains 6.5-7.5×10^8 platelet/ml was prepared from rabbit blood. To the 200 μl of PRP, 5 μl of calcium chloride (1 mM) and 50 μl of pH 7.4 Tris-acetate solution (5 mM) containing 120 mM NaCl and test compound were added successively, and then stirred for 2 min. at 37° C. To the solution 5 μl of adenosine diphosphate (ADP) (2.5 μM) or collagen (2.5 μg/ml) was added as an aggregation inducer. Aggregation was measured by using an aggregometer (NKK HEMA TRACER 1).

[2] = tested on: platelet aggregation induced by adenosine diphosphate (ADP); assay: Inhibition of ADP-induced platelet aggregation in platelet rich plasma (Test Method B); assay type: cell-based, rabbit; conditions: 2 min, ADP (2.5 μM), 37° C., read-out: ID50, ADP
Procedure: as §1

mean blood pressure = assay: Antihypertensive test in DOCA/saline hypertensive rats (Test Method A); assay type: in vivo, male Wister rats; conditions: Rattus norvegicus, DOCA hypertensive rats, read-out: Effect Max (mean ratio of maximum decrease of blood pressure); for inhibition in vivo at 0.1 mg/kg: c: orally; for inhibition in vivo at 1 mg/kg: d: orally
Procedure: Five-week old male Wister rats were uninephrectomized under anesthesia. Deoxycorticosterone acetate (DOCA) (30 mg/kg), suspended in peanut oil, was injected subcutaneously twice a week and 1% saline was substituted for the drinking water. Animals with mean blood pressure 150-200 mmHg were used for experiment between 5 and 7 weeks after surgery. The test compounds were administered intraperitonealy or orally. Blood pressure was measured at the femoral artery by means of a pressure transducer and recorded as electrically integrated values of mean arterial pressure.

[3] = Oryctolagus cuniculus, Platelet, pH 7.4, rabbit PRP
[4] = rabbit PRP, pH 7.4, listed as Ex. 75, 2 min
[5] = rabbit PRP, pH 7.4, listed as Ex. 76, 2 min

- IC50 [1, 3]: 17000 nM
- IC50 [2, 3]: 9800 nM
SMILES: CC1NC(=O)N(C)N=C1c1ccc2c(c1)CCC(=O)N2C (stereo not drawn) [Example 71, 2,5-Dimethyl-6-(1-methyl-2-oxo-1,2,3,4-tetrahydroquinolin-6-yl)-4,5-dihydro-1,2,4-triazin-3(2H)-one]

SMILES: CC1NC(=O)NN=C1c1ccc(Br)cc1 (stereo not drawn) [Example 32-(3), 37-(2), 6-(4-bromophenyl)-5-methyl-4,5-dihydro-1,2,4-triazin-3(2H)-one]
- inhibition in vivo at 10 mg/kg (mean blood pressure; ip, a: intraperitonealy): 61.8%
- inhibition in vivo at 10 mg/kg (mean blood pressure; po, b: orally): 58.3%

SMILES: CC1N=C(N2CCN(C(=O)c3ccco3)CC2)NN=C1c1ccccc1 (stereo not drawn) [4-(2), 3-[4-(2-Furoyl)-1-piperazinyl]-5-methyl-6-phenyl-2,5-dihydro-1,2,4-triazine]
- inhibition in vivo at 10 mg/kg (mean blood pressure; ip, a: intraperitonealy): 48.9%

SMILES: CC1NC(=O)NN=C1c1ccc(Cl)cc1 (stereo not drawn) [39-(2), 6-(4-Chlorophenyl)-5-methyl-4,5-dihydro-1,2,4-triazin-3(2H)-one]
- inhibition in vivo at 10 mg/kg (mean blood pressure; ip, a: intraperitonealy): 57.1%
- inhibition in vivo at 10 mg/kg (mean blood pressure; po, b: orally): 38.6%

- IC50 [1, 4]: 34 nM
- IC50 [2, 4]: 98 nM
SMILES: CC1NC(=O)NN=C1c1ccc2c(c1)CCC(=O)N2C (single isomer, unassigned; (-)) [Example 75, (-)-5-methyl-6-(1-methyl-2-oxo-1,2,3,4-tetrahydroquinolin-6-yl)-4,5-dihydro-1,2,4-triazin-3(2H)-one]
- inhibition in vivo at 0.1 mg/kg (mean blood pressure; po): 55%

SMILES: CC1N=C(N2CCOCC2)NN=C1c1ccccc1 (stereo not drawn) [8-(2), 5-methyl-3-morpholino-6-phenyl-2,5-dihydro-1,2,4-triazine hydrochloride]
- inhibition in vivo at 10 mg/kg (mean blood pressure; ip, a: intraperitonealy): 48.9%

- IC50 [1, 3]: 18 nM
- IC50 [2, 3]: 54 nM
SMILES: CC1NC(=O)NN=C1c1ccc2c(c1)CCC(=O)N2 (stereo not drawn) [67-(3), 5-Methyl-6-(2-oxo-1,2,3,4-tetrahydroquinolin-6-yl)-4,5-dihydro-1,2,4-triazin-3(2H)-one]
- inhibition in vivo at 0.1 mg/kg (mean blood pressure; po): 43%

- IC50 [1, 5]: 360 nM
- IC50 [2, 5]: 1200 nM
SMILES: CC1NC(=O)NN=C1c1ccc2c(c1)CCC(=O)N2C (single isomer, unassigned; (+)) [Example 76, (+)-5-Methyl-6-(1-methyl-2-oxo-1,2,3,4-tetrahydroquinolin-6-yl)-4,5-dihydro-1,2,4-triazin-3(2H)-one]
- inhibition in vivo at 1 mg/kg (mean blood pressure; po): 56%

- IC50 [1, 3]: 42 nM
- IC50 [2, 3]: 140 nM
SMILES: CCCCN1C(=O)CCc2cc(C3=NNC(=O)NC3C)ccc21 (stereo not drawn) [68-(3), 6-(1-Butyl-2-oxo-1,2,3,4-tetrahydroquinolin-6-yl)-5-methyl-4,5-dihydro-1,2,4-triazin-3(2H)-one]
- inhibition in vivo at 1 mg/kg (mean blood pressure; po): 62%

SMILES: CC1NC(=O)NN=C1c1ccccc1 (stereo not drawn) [36-(3), 5-methyl-6-phenyl-4,5-dihydro-1,2,4-triazin-3(2H)-one]
- inhibition in vivo at 10 mg/kg (mean blood pressure; ip, a: intraperitonealy): 45.2%

SMILES: CC1N=C(N2CCCCC2)NN=C1c1ccccc1 (stereo not drawn) [10-(2), 5-Methyl-6-phenyl-3-piperidino-2,5-dihydro-1,2,4-triazine]
- inhibition in vivo at 10 mg/kg (mean blood pressure; ip, a: intraperitonealy): 46.5%
- inhibition in vivo at 10 mg/kg (mean blood pressure; po, b: orally): 50%

SMILES: CC1N=C(NCCO)NN=C1c1ccccc1 (stereo not drawn) [6-(2), 3-(2-Hydroxyethylamino)-5-methyl-6-phenyl-2,5-dihydro-1,2,4-triazine]
- inhibition in vivo at 10 mg/kg (mean blood pressure; ip, a: intraperitonealy): 43.1%

SMILES: CC1N=C(NN)NN=C1c1ccc(Cl)cc1 (stereo not drawn) [Example 25-(4), 6-(4-chlorophenyl)-3-hydrazino-5-methyl-2,5-dihydro-1,2,4-triazine hydrochloride]
- inhibition in vivo at 10 mg/kg (mean blood pressure; ip, a: intraperitonealy): 51.7%
- inhibition in vivo at 10 mg/kg (mean blood pressure; po, b: orally): 37.4%

- IC50 [1, 3]: 110 nM
- IC50 [2, 3]: 160 nM
SMILES: CC1NC(=O)NN=C1c1ccc2c(c1)CCC(=O)N2C (stereo not drawn) [Example 49-(3), 77-(2), 5-methyl-6-(1-methyl-2-oxo-1,2,3,4-tetrahydroquinolin-6-yl)-4,5-dihydro-1,2,4-triazin-3(2H)-one]
- inhibition in vivo at 0.1 mg/kg (mean blood pressure; po): 43%
- inhibition in vivo at 1 mg/kg (mean blood pressure; po): 70%
